Reference: ChEMBL document CHEMBL4513101, “Naegleria gruberi Pathogen Box compounds screening” (2021)
Active and inactive are the calls of the source. Cut-off read from the data, not from the text of the source: active = inhibition of 80% or more and inactive = less.

Test system: Naegleria gruberi
Assay: microbe, parasite or virus in culture
Format: functional
Conditions: NEG-M, CONC 10 uM
Description: Growth inhibiting activity of Naegleria gruberi in vitro

Row | Compound | inhibition at 10 µM
1 | c1ccc(C[C@@H]2CN(c3nccc(Oc4ccc(-n5ccnc5)cc4)n3)CCN2)cc1 | 26.4% (not active)
2 | NC(=O)c1cc(-c2ccsc2)ccc1OCCOc1ccccc1 | 43.7% (not active)
3 | CCOc1ccccc1C(=O)Nc1cccc(-c2nc3ncccn3c2C)c1 | 34.5% (not active)
4 | O=C(NC1CC1)c1ccc(N2CCOc3ccc(Cl)cc32)s1 | 27.6% (not active)
5 | COc1cccc(CC(=O)N2CCC(n3c(C)nc4ccc(F)cc43)CC2)c1 | 19.3% (not active)
6 | O=C(Nc1ccc(C(F)(F)F)c(C(F)(F)F)c1)c1cc(Cl)ccc1O | 98.5% (active)
7 | CC(Oc1cccc(Cl)c1)C(=O)Nc1ccc2oc(-c3ccncc3)nc2c1 (stereo unspecified) | 35.9% (not active)
8 | Nc1ncnc2c1ncn2[C@@H]1O[C@H](COS(=O)(=O)NC(=O)c2ccccc2O)[C@@H](O)[C@H]1O | 14.5% (not active)
9 | COc1ccc(-c2nnc3ccc(-c4cccc(C(C)C)c4)cn23)cc1OC | 26.7% (not active)
10 | OC[C@H]1O[C@@H](n2c3ccc(Cl)cc3c3c(-c4cc5ccccc5o4)ncnc32)C(O)[C@H]1O (stereo partly specified) | 17.3% (not active)
11 | O=S(=O)(c1ccc(Cl)cc1)N1CCN(C(=S)NCc2ccco2)CC1 | 38% (not active)
12 | Nc1nc2cc(-c3cncc(Oc4ccc(F)cc4)c3)ccc2[nH]1 | 35.5% (not active)
13 | CCn1ncc2c(NC3CCOCC3)c(CNC(=O)c3ccnn3C)c(C)nc21 | 0.8% (not active)
14 | Cc1cc(C)n2nc(C(=O)Nc3cc(C(F)(F)F)ccc3N3CCOCC3)nc2n1 | 38% (not active)
15 | CC(C)(C)c1cc(C(=O)Nc2cccnc2)cc(C(=O)Nc2cccnc2)c1 | 28% (not active)
16 | c1coc(CNc2nc(N3CCCCC3)nc3ccccc23)c1 | 56.5% (not active)
17 | COc1ccc(OC(C)C(=O)Nc2ccc(Cl)cc2C)cc1 (stereo unspecified) | 34% (not active)
18 | O=C(C1CCN(c2cc(-n3cccc3)ncn2)CC1)N1CCc2ccccc2C1 | 13.5% (not active)
19 | CCCS(=O)(=O)N1CCC(CO)(Cc2ccccc2C(F)(F)F)CC1 | 19% (not active)
20 | COc1ccccc1C(C)NCC(=O)Nc1cc(C(F)(F)F)ccc1Cl (stereo unspecified) | 49.5% (not active)
21 | Cc1nn(C(=O)Nc2cccc(C(F)(F)F)c2)c(C)c1Sc1ncccn1 | 16.7% (not active)
22 | COc1cc2ncnc(NC3CCN(Cc4ccccc4)CC3)c2cc1OC | 13.6% (not active)

Row | Compound | inhibition at 10 µM
23 | CCCCc1ccc(C(=O)Nc2nccc3ccccc23)nc1 | 43.2% (not active)
24 | COc1cncc(-c2cncc(N3CCN(c4ccncc4)CC3)n2)c1 | 26.8% (not active)
25 | COc1ccc(C2(C(=O)Nc3ccc(Br)cc3)CCCC2)cc1 | 11.1% (not active)
26 | CC1COC2(CCN(c3nc(=O)c4cc(C(F)(F)F)cc([N+](=O)[O-])c4s3)CC2)O1 (stereo unspecified) | 38.4% (not active)
27 | CCCCc1ccc(NC(=O)Nc2ccc(O[C@H]3CCCC[C@@H]3N(C)c3ccccc3)c(F)c2)cc1 | 41.1% (not active)
28 | CC(C)n1nc(-c2cc3c(Cl)cccc3[nH]2)c2c(N)ncnc21 | 72.2% (not active)
29 | O=C(NCCN1CCCC1)c1cc(NCCN2CCOCC2)nc2ccc(Cl)cc12 | 11% (not active)
30 | COc1ccc(C2=NCCN2)cc1-c1cn(-c2cccc(C3=NCCN3)c2)nn1 | 21.7% (not active)
31 | CC1=Nc2ccc(Cl)cc2C(c2ccccc2)N1CCNC(=O)CN(C)C (stereo unspecified) | 4.7% (not active)
32 | COc1ccc(S(=O)(=O)Nc2ccc(CN3CCN(C(=O)c4cccc(C#N)c4)CC3)cc2)cc1 | 18.8% (not active)
33 | CCNC(=O)C(C)Nc1nc(-c2cccnc2)nc2sc(C)c(C)c12 (stereo unspecified) | 12.2% (not active)
34 | NCCC(O)C(=O)N[C@@H]1C[C@H](N)[C@@H](OC2O[C@H](CN)[C@@H](O)[C@H](O)[C@H]2O)[C@H](O)C1OC1O[C@H](CO)[C@@H](O)[C@H](N)[C@H]1O (stereo partly specified) | 0% (not active)
35 | O=C(Nc1nnc(-c2ccc(Cl)s2)o1)c1ccc(Cl)s1 | 21.9% (not active)
36 | Nc1ncnc2c1c(Cc1cccc3ccccc13)nn2CC1CCNCC1 | 11.4% (not active)
37 | C[C@H](C(N)=O)N1CCCC[C@@H]1c1ccc(OCc2cccc(F)c2)cc1 | 13.9% (not active)
38 | Cc1ccc(-c2cc(C(=O)Nc3cccnc3)c3cc(Br)ccc3n2)cc1 | 16.8% (not active)
39 | COc1cccc(NC(=O)c2c(NC(=O)c3cccnc3)sc3c2CCC3)c1 | 62.6% (not active)
40 | Cc1ccc(C(=O)Nc2ccc(S(=O)(=O)O)c3cc(S(=O)(=O)O)cc(S(=O)(=O)O)c23)cc1NC(=O)c1cccc(NC(=O)Nc2cccc(C(=O)Nc3cc(C(=O)Nc4ccc(S(=O)(=O)O)c5cc(S(=O)(=O)O)cc(S(=O)(=O)O)c45)ccc3C)c2)c1 [SURAMIN] | 32% (not active)
41 | Cc1cc(C)n(-c2ccc(NC(=O)C3CCN(Cc4cnc(C)s4)CC3)cc2)n1 | 6.1% (not active)
42 | O=[N+]([O-])c1cn2c(n1)OC[C@@H](OCc1ccc(OC(F)(F)F)cc1)C2 [PRETOMANID] | 16.1% (not active)
43 | CNC(=O)C1Cc2ccccc2N1C(=O)Cc1ccc(F)cc1 (stereo unspecified) | 38% (not active)
44 | CS(=O)(=O)N1CCC(CCn2nc(Cc3cccc4ccccc34)c3c(N)ncnc32)CC1 | 26.2% (not active)

Row | Compound | inhibition at 10 µM
45 | COc1ccc2nc(C)cc(OCC(=O)Nc3ccccc3OC)c2c1 | 34.9% (not active)
46 | COc1ccc(Oc2ccc([C@@H](C)N(C)c3ncc4c(N)nc(N)nc4n3)cc2)cc1 | 25.6% (not active)
47 | CCC(Sc1nc2ccccc2o1)C(=O)Nc1nnc(C)s1 (stereo unspecified) | 8.4% (not active)
48 | Cc1cc(Nc2ccc(C(F)(F)F)cc2)n2ccnc2n1 | 0% (not active)
49 | COc1cccc(OCC(=O)c2ccc(Br)cc2)c1 | 33.4% (not active)
50 | Cc1cc(NC(=O)c2ccc(S(=O)(=O)N(Cc3ccccc3)C(C)C)cc2)no1 | 0% (not active)
51 | CC(C)(C(=O)Nc1ccc(F)cc1)n1cc(-c2ccccc2F)cn1 | 30.2% (not active)
52 | c1ccc(Oc2ccc(-c3cncc(-c4ccc5[nH]ccc5c4)n3)cc2)cc1 | 11.4% (not active)
53 | Cc1ccc(-c2nc(CN(Cc3ccccn3)C(C)C)cs2)o1 | 26.7% (not active)
54 | CN1CCN(S(=O)(=O)c2ccc(-c3ccc4c(Nc5ccc6nn[nH]c6c5)ccnc4c3)cc2)CC1 | 10.8% (not active)
55 | O=C(Nc1nnc(-c2ccc(Cl)cc2)o1)c1cccc(C(F)(F)F)c1 | 19.7% (not active)
56 | CC(C)C(NC(=O)Cc1cccc2ccccc12)C(=O)Nc1cccc(C#N)c1 (stereo unspecified) | 37.5% (not active)
57 | O=C(C(Cc1c[nH]c2ccccc12)NS(=O)(=O)c1ccc(Cl)cc1)N1CCCCC1 (stereo unspecified) | 23.3% (not active)
58 | O=C1O[C@@H](CO)CN1c1cc(F)c(C2=CCN(Cc3ccccc3)CC2)c(F)c1 | 8.3% (not active)
59 | CCc1ccc(C(NCc2nc(N)nc(N(C)C)n2)C(C)C)cc1 (stereo unspecified) | 18.9% (not active)
60 | c1ccc(-c2nc(NC3CCCCC3)cc(C3CC3)n2)nc1 | 23.7% (not active)
61 | CC(C)(C)OC(=O)N1CCN(c2nccc(-c3ccc(-c4ccc(Cl)cc4)s3)n2)CC1 | 17% (not active)
62 | O=C(NC1=NCCS1)c1sc2cc(F)ccc2c1Cl | 34.6% (not active)
63 | Cc1cc2nc(NC(=O)C(C)(C)C)nc(Cl)c2n1Cc1ccc(Cl)cc1 | 43% (not active)
64 | CC(=O)Nc1ccc(NC(=O)c2cc(-c3cc(Cl)ccc3O)n[nH]2)cc1 | 8.8% (not active)
65 | O=C(N[C@H](Cc1ccccc1)C(=O)Nc1ccccc1N1CCOCC1)c1cccs1 | 29.6% (not active)
66 | O=C(Nc1ccnc(-c2cccnc2)n1)c1cc(C(F)(F)F)cc(C(F)(F)F)c1 | 44.3% (not active)

Row | Compound | inhibition at 10 µM
67 | O=C(CCC1CCCCC1)Nc1cccc(-c2nnc(-c3ccco3)o2)c1 | 30% (not active)
68 | Cc1cnc(N2CCN[C@@H](Cc3ccccc3)C2)nc1Oc1ccc(-n2ccnc2)cc1 | 9.8% (not active)
69 | CO/N=C(\C(=O)OC)c1ccccc1CO/N=C(\C)c1cccc(C(F)(F)F)c1 | 43.9% (not active)
70 | N#Cc1ccc(-c2ccc(OCC(N)=O)cc2)cc1 | 33.5% (not active)
71 | CCOC(=O)c1cc(-c2csc(Nc3c(C)cc(C)cc3C)n2)on1 | 33.4% (not active)
72 | O=C(Nc1ccc2c(c1)B(O)OC2)c1ccccc1C(F)(F)F | 89.8% (active)
73 | N=C(N)c1ccc(-c2cc(-c3ccccc3)on2)cc1 | 26.5% (not active)
74 | COC(=O)c1c(NC(=O)c2c(F)c(F)c(F)c(F)c2F)sc2c1CCCCC2 | 30.9% (not active)
75 | c1ccc2c(c1)CN(CC1CC1)CC1(CCN(Cc3c[nH]c4cnccc34)CC1)O2 | 4.4% (not active)
76 | CN1CCN(c2nccc3nc(-c4ccc(F)c(F)c4)[nH]c23)CC1 | 35% (not active)
77 | COc1ccc(CCN2CCC(NCc3cccc(N(C)C)c3)CC2)cc1 | 8.7% (not active)
78 | CCCCCCCCCCCCCCCCOP(=O)([O-])OCC[N+](C)(C)C [MILTEFOSINE] | 4% (not active)
79 | COC(=O)Nc1nc2cc(C(=O)c3ccccc3)ccc2[nH]1 [MEBENDAZOLE] | 29.8% (not active)
80 | O=C(Nc1ccc(F)c(-c2nc3cc(-c4ccccc4)cnc3[nH]2)c1)N1CCCC1 | 49.5% (not active)
81 | FC(F)(F)c1cnc(Sc2nnc(-c3ccncc3)o2)c(Cl)c1 | 42.8% (not active)
82 | CN(C(=O)c1cc2c(-c3cncnc3)cccc2[nH]1)c1ccccc1 | 27.7% (not active)
83 | Nc1ncnc2c1ncn2C[C@@H](O)[C@@H](O)C(=O)O [ERITADENINE] | 36.3% (not active)
84 | COc1cccc(-n2nnnc2S(=O)(=O)Cc2ccccc2)c1 | 85.8% (active)
85 | CCN(CC)S(=O)(=O)c1ccc(Cl)c(C(=O)Nc2ccc3nc(C)sc3c2)c1 | 84.7% (active)
86 | Cc1[nH]c2cc(F)cc(F)c2c(=O)c1-c1ccc(Oc2ccc(OC(F)(F)F)cc2)cc1 | 11.3% (not active)
